Experimental data: patent US9138431B2, “Methods of treatment of histamine H-4 receptor-related pruritus” (BRIDGE PHARMA, INC., priority 2013, dated 2015)
pIC50, pKi: −log10 of the molar value. Like-named read-outs stand apart in the source and are kept apart here.

How the values were obtained:
[1] = system: histamine-induced pruritus; conditions: intradermal histamine, humans and mice; general statement; cited from earlier work
[2] = system: human granulocytes (leukocytes; buffy coat); assay: Inhibition of histamine release from human granulocytes (A23187-induced); type: cell-based; conditions: for pIC50: Homo sapiens, Leukocyte, 20 min, histamine release induced by A23187 5 μM, 20 min/37° C., read-out: Inhibition of mediator release IC50
Procedure: Histamine is excessively released from granulocytes in patients with pruritic diseases. The inhibition of histamine release from human granulocytes (leukocytes; buffy coat) by test articles was studied. Leukocytes were obtained from blood from healthy human volunteers and release of histamine was induced by incubation (20 min/37° C.) of the buffy coats with the calcium ionophore A23187 (5 μM) in the presence or absence of a test article. Histamine was analyzed by enzyme-immune assays, using commercially available kits and a microplate reader (MRX, Dynatech). The test articles were evaluated, in duplicate, at five concentrations.

[3] = biological target: human histamine H-4 Receptor (Homo sapiens (Human), UniProt Q9H3N8); assay: Binding to histamine H-4 receptors ([3H]-histamine ligand); conditions: Cheng-Prusoff, read-out: Human H-4 receptor affinity (Ki)
Sequence of human histamine H-4 Receptor (Q9H3N8 whole entry): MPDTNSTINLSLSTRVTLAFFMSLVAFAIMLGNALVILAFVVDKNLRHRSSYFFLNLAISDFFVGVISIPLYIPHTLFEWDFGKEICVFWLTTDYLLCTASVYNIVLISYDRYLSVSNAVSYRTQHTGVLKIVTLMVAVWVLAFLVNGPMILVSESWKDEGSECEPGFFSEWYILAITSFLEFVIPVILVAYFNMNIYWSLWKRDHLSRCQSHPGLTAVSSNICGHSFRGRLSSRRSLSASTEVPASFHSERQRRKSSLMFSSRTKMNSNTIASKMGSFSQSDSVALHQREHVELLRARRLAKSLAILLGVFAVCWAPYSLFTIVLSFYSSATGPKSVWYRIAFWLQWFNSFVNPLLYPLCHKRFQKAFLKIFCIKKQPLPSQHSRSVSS
Procedure: (§1) Affinities of the test compounds for peripheral human histamine H-4-receptors were assessed using receptor-binding assays. The specific binding of the radioactive ligand to the receptor was defined as the difference between total binding and nonspecific binding, determined in the presence of excess unlabeled ligand. [^3H]-histamine was used as the ligand in this study and the affinity values were determined according to the Cheng-Prusoff equation.

[4] = Dermal drug accumulation after oral administration (plasma and skin PK); type: in vivo, beagle dogs; conditions: Day 28, oral 8.0 mg/kg/day hydrogen fumarate salt, dogs
Procedure: Five male beagle dogs, weighing 11.2-13.9 kg (2-4 years old) were used in the study. All animals were administered gelatin capsules containing oral doses of the test article 8.0 mg/kg/day as a hydrogen fumarate salt, equal to 5.6 mg/kg/day of the free base. The animals were dosed once daily for four consecutive weeks followed by daily observations for an additional two-week washout period.
Multiple plasma samples and skin biopsies were taken from each dog on Day 1 and Day 28 of drug administration. The plasma and skin samplings were performed at pre-dose, and at 2, 6, 12 and 24 hours post-dose. Plasma and skin samples were also taken intermittently at predetermined intervals during the 28-days dosing period and up to the last day of the study, which was Day 42. Blood samples were taken from v. Cephalica antebrachii. Skin biopsies were taken from the area between the mid ventral to lateral abdominal areas, using a 6 mm (diameter) skin biopsy device (Acu-Punch®, Acuderm® Inc., Fort Lauderdale, Fla. 33309). Multiple plasma and biopsy samples were obtained from each of 4 or 5 dogs. Subcutaneous fat deposits were carefully trimmed from the skin samples and the skin samples were weighed. All plasma and skin samples were kept
The plasma samples and skin biopsy samples were analyzed using LC/MS/MS methodology. All pharmacokinetic analyses were performed using Pharsight WinNonlin® Professional v5.2.1 software.

[5] = biological target: human histamine H-1 Receptor (Homo sapiens (Human), UniProt P35367); assay: Binding to histamine H-1 receptors; conditions: read-out: Human H-1 receptors IC50, heading: Human H-1 receptors IC50
Sequence of human histamine H-1 Receptor (P35367 whole entry): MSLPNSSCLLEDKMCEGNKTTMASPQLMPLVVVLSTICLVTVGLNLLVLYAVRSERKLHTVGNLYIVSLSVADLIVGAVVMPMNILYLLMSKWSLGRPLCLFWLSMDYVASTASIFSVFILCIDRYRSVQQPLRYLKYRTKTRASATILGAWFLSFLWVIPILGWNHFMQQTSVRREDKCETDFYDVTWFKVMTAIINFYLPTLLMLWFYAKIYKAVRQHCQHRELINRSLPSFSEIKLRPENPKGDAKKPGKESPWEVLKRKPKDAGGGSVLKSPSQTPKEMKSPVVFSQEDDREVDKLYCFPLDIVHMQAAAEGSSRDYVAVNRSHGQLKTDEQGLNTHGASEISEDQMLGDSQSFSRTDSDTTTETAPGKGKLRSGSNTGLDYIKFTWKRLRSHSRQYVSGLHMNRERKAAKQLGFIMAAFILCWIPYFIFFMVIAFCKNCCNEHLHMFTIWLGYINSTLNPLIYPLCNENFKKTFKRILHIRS
Procedure: as §1, with “H-1-receptors” for “H-4-receptors”, “Ki-values” for “[^3H]-histamine was used as the ligand in this study and the affinity values”

[6] = Sedation in human subjects; type: in vivo; conditions: doses of 5 mg and 10 mg
[7] = Repeat-dose pharmacological and toxicological studies in dogs (sedation, tolerability); type: in vivo; conditions: daily doses up to 20 mg/kg/day
Description: Dogs vomit spontaneously for a variety of benign reasons—to expel unwanted content from their stomach, as a result of gastric irritation or in response to colonic irritation. In recent toxicological studies in dogs of various drugs, including isomeric norketotifen, vomiting occurred in both control groups and drug groups and may have been treatment-related, rather than drug-related. The unexpectedly low systemic toxicity of norketotifen and the isomers thereof is believed to be due to low systemic (plasma) concentrations, caused by the fact that norketotifen and the isomers thereof are not circulating in plasma but are accumulating in the skin, which is the largest organ in the body.

[8] = system: histamine-induced pruritus; assay: Antipruritic activity, histamine-induced pruritus in mice; type: in vivo, CD-1 mice; conditions: for Inhibition of histamine-induced pruritus (bouts of scratches): oral dosing 60 min before intradermal histamine 300 nmol, references 20 mg/kg, norketotifen escalating doses
Procedure: Antipruritic effects were tested in vivo in CD-1 mice, females, 10-12 weeks, according to methods known in the art. The hair was clipped over the rostral part of the back at the interscapular level of the mice one day before the dosing. Before the testing, the mice were placed in individual clear plastic cages for at least one hour for acclimation. After fasting for 1.5 hours, the animals were dosed orally with the test article, dissolved in a vehicle consisting of 1% methylcellulose/water, 10 mL/kg body weight. Sixty minutes after the oral dosing, an intradermal injection of histamine (300 nmol in 20 μl phosphate buffered saline (PBS), pH 7.4) was administered. Immediately after the histamine injection, the bouts of scratches were counted for 40 min. Scratching induced by the histamine vehicle PBS served as control.
Norketotifen was tested in escalating doses and in a supramaximal dose of 100 mg/kg.

[9] = system: pruritus induced by interleukin-31 (IL-31); conditions: recent study; cited from earlier work

| SMILES | pIC50 [2] | pKi [3] | MRT Plasma [4] | t1/2 Plasma [4] | MRT Skin [4] | t1/2 Skin [4] | pIC50 [5] | Inhibition of histamine-induced pruritus (bouts of scratches) [8] | other results |
| --- | --- | --- | --- | --- | --- | --- | --- | --- | --- |
| CC(C)(C(=O)O)c1ccc(C(O)CCCN2CCC(C(O)(c3ccccc3)c3ccccc3)CC2)cc1 (stereo not drawn) [fexofenadine] | – | – | – | – | – | – | – | – | Inhibition of pruritus following histamine injections by H-1 inhibitors [1]: not inhibited |
| CN1CCC(=C2c3ccccc3CC(=O)c3sccc32)CC1 [Ketotifen, ketotifen, reference compound] | 4.04 | – | – | – | – | – | – | – | – |
| O=C1Cc2ccccc2C(=C2CCNCC2)c2ccsc21 [S-NORKETOTIFEN, S-norketotifen] | – | 5.96 | 11.3 h | 10.9 h | 159.0 h | 162.7 h | 7.64 | – | – |
| O=C1Cc2ccccc2C(=C2CCNCC2)c2ccsc21 [Norketotifen, norketotifen] | 5.04 | – | – | – | – | – | – | dose-dependently inhibiting | Sedation [6]: do not produce sedation; pIC50 ([5]; listed as RS-NORKETOTIFEN): 7.96; Sedation or other adverse events, chronic dosing [7]: without causing sedation or other adverse events; Potency relative to ketotifen as inhibitor of histamine release ([2]; human inflammatory cells): approximately 10 times; Inhibition of histamine-induced pruritus at supramaximal dose ([8]; norketotifen 100 mg/kg oral): complete inhibition; Inhibition of histamine-induced pruritus (bouts of scratches) ([8]; listed as norketotifen): potently inhibited |
| O=C(O)/C=C/C(=O)O.O=C1Cc2ccccc2C(=C2CCNCC2)c2ccsc21 [R-NORKETOTIFEN, R-norketotifen] | – | 5.64 | 14.1 h | 7.7 h | 159.1 h | 157.0 h | 7.77 | – | – |
| CN1CCN(C(=O)c2cc3cc(Cl)ccc3[nH]2)CC1 [JNJ7777120, reference compound] | – | – | – | – | – | – | – | potently inhibited | Inhibition of IL-31-induced pruritus [9]: failed to inhibit |
